Our source for the IC50, Activity and inhibition values is ChEMBL document CHEMBL5390316, “Enniatin A Analogues as Novel Hsp90 Inhibitors that Modulate Triple-Negative Breast Cancer” (ACS Med Chem Lett, 2023).

Activity calls are given as the source filed them. The rule behind the calls is not given here.

In assay [1] the test system is Hs-578T. Description: Antiproliferative activity against human Hs-578T cells assessed as reduction in cell viability incubated for 48 hrs by MTT assay. The assay is classed as functional, cell-based. In general terms: Tetrazolium assays rely on reduction of a dye to a coloured formazan, in cell work by metabolically active cells.
Assay [2] relates to Hs-578T. In words: Induction of heat shock response in human Hs-578T cells assessed as change in Hsp70 level at 5 uM incubated for 24 hrs by Western blot analysis. The assay is classed as functional, cell-based.
In assay [3] the test system is Hs-578T. In words: Induction of heat shock response in human Hs-578T cells assessed as change in Hsp40 level at 5 uM incubated for 24 hrs by Western blot analysis. It is filed as functional, cell-based. On the technique in general: In western blotting, separated proteins are transferred to a membrane and probed.
The target of assay [4] is Heat shock protein HSP90 (Homo sapiens) (UniProt P07900+P08238). In words: Inhibition of HSP90 in human Hs-578T cells assessed as degradation of CDK4 at 5 uM incubated for 24 hrs by Western blot analysis. It is filed as cell-based.
The subject of assay [5] is E0771. Description: In vivo induction of heat shock response in mouse E0771 cells implanted in C57BL/6 mouse assessed as increased Hsp70 level at 10 mg/kg, ip administered every 48 hrs for 3 weeks by Western blot analysis. The assay is classed as functional, organism-based.
The test system of assay [6] is 4T1. In words: Inhibition of HSP90 in mouse 4T1 cells assessed as reduction in ILK level at 7.5 uM incubated for 24 hrs by Western blot analysis. It is filed as cell-based.
The test system of assay [7] is E0771. Description: In vivo inhibition of HSP90 in mouse E0771 cells implanted in C57BL/6 mouse at 10 mg/kg, ip administered every 48 hrs for 3 weeks by Western blot analysis. It is filed as functional, organism-based.
For assay [8], the system named is 4T1. Description: Inhibition of HSP90 in mouse 4T1 cells assessed as reduction in CDK4 level at 7.5 uM incubated for 24 hrs by Western blot analysis. The assay is classed as cell-based.
Assay [9] has as its system EO771. In words: Induction of heat shock response in mouse EO771 cells assessed as change in Hsp70 level at 7.5 uM incubated for 24 hrs by Western blot analysis. It is filed as functional, cell-based.
The subject of assay [10] is 4T1. In words: Induction of heat shock response in mouse 4T1 cells assessed as change in Hsp70 level at 7.5 uM incubated for 24 hrs by Western blot analysis. The assay is classed as functional, cell-based.
The test system of assay [11] is E0771. Description: In vivo inhibition of HSP90 in mouse E0771 cells implanted in C57BL/6 mouse assessed as change in p-Akt/Akt ratio at 10 mg/kg, ip administered every 48 hrs for 3 weeks by Western blot analysis. The assay is classed as functional, organism-based.
The test system of assay [12] is EO771. Description: Inhibition of HSP90 in mouse EO771 cells assessed as change in ILK level at 7.5 uM incubated for 24 hrs by Western blot analysis. It is filed as cell-based.
Assay [13] deals with E0771. In words: In vivo inhibition of HSP90 in mouse E0771 cells implanted in C57BL/6 mouse assessed as change in ILK at 10 mg/kg, ip administered every 48 hrs for 3 weeks by Western blot analysis. The assay is classed as functional, organism-based.
Assay [14] has as its system E0771. Description: In vivo inhibition of HSP90 in mouse E0771 cells implanted in C57BL/6 mouse assessed as change in CDK4 at 10 mg/kg, ip administered every 48 hrs for 3 weeks by Western blot analysis. It is filed as functional, organism-based.
Assay [15] deals with EO771. Description: Inhibition of HSP90 in mouse EO771 cells assessed as change in CDK4 level at 7.5 uM incubated for 24 hrs by Western blot analysis. It is filed as cell-based.
Assay [16] deals with EO771. Description: Antiproliferative activity against mouse E0771 cells implanted in C57BL/6 mouse assessed as inhibition of tumor volume at 10 mg/kg, ip administered every 48 hrs for 3 weeks. It is filed as functional, organism-based.
Assay [17] relates to E0771. In words: In vivo induction of heat shock response in mouse E0771 cells implanted in C57BL/6 mouse assessed as increased Hsp40 level at 10 mg/kg, ip administered every 48 hrs for 3 weeks by Western blot analysis. The assay is classed as functional, organism-based.
The subject of assay [18] is Hs-578T. In words: Induction of heat shock response in human Hs-578T cells assessed as reduction in Hsp70 level at 1 uM incubated for 24 hrs by Western blot analysis. The assay is classed as functional, cell-based.
Assay [19] relates to Hs-578T. In words: Induction of heat shock response in human Hs-578T cells assessed as reduction in Hsp40 level at 1 uM incubated for 24 hrs by Western blot analysis. The assay is classed as functional, cell-based.

With `CC[C@H](C)[C@H]1C(=O)O[C@H](C(C)C)C(=O)N(C)[C@@H]([C@@H](C)CC)C(=O)O[C@H](C(C)C)C(=O)N(C)[C@@H]([C@@H](C)CC)C(=O)OCC(=O)N1C`, the IC50 – broadly, the concentration needed to halve the response being measured – in the assay with Hs-578T [1] stood at 16 µM.
Regarding `CC[C@H](C)[C@H]1C(=O)O[C@H](C(C)C)C(=O)N(C)[C@@H](Cc2ccccc2)C(=O)O[C@H](C(C)C)C(=O)N(C)[C@@H]([C@@H](C)CC)C(=O)O[C@H](C(C)C)C(=O)N1C`, the half-maximal inhibitory concentration (IC50) in the assay with Hs-578T [1] is 8 µM. For the same molecule, the result in the assay on Hs-578T [2] and in the assay with Hs-578T [3] was inactive. In assay [4], the inhibition entry was “Active”.
On to `CC[C@H](C)[C@H]1C(=O)O[C@H](C(C)C)C(=O)N(C)[C@@H]([C@@H](C)CC)C(=O)O[C@H](C(C)C)C(=O)N(C)[C@@H]([C@@H](C)CC)C(=O)O[C@H](Cc2ccccc2)C(=O)N1C`, for which the outcome with E0771 [5], in the assay on EO771 [16] and with E0771 [17] was Active. For the same molecule, the inhibition result (with 4T1 [6]; in the assay with 4T1 [8]; in the assay on E0771 [11]; with E0771 [13]; in the assay with E0771 [14]; in assay [4]) was “Active” each time. Further, the inhibition entry in the assay with E0771 [7], with EO771 [12] and in the assay with EO771 [15] was “inactive” each time. Also, the outcome in the assay on EO771 [9], with 4T1 [10], in the assay with Hs-578T [2] and with Hs-578T [3] was inactive. Besides, the IC50 with Hs-578T [1] amounted to 4.36 µM.
For the molecule `CC[C@H](C)[C@H]1C(=O)O[C@H](C(C)C)C(=O)N(C)[C@@H](C)C(=O)O[C@H](C(C)C)C(=O)N(C)[C@@H]([C@@H](C)CC)C(=O)O[C@H](C(C)C)C(=O)N1C`, the half-maximal inhibitory concentration (IC50) in the assay on Hs-578T [1] stood at 16.2 µM.
Take `C=CCNC1=C2C[C@@H](C)C[C@H](OC)[C@H](O)[C@@H](C)/C=C(\C)[C@H](OC(N)=O)[C@@H](OC)/C=C\C=C(/C)C(=O)NC(=CC1=O)C2=O`: the result in the assay with Hs-578T [18] and in the assay with Hs-578T [19] was Active.
As to `CC[C@H](C)[C@H]1C(=O)O[C@H](C(C)C)C(=O)N(C)[C@@H]([C@@H](C)CC)C(=O)O[C@H](C(C)C)C(=O)N(C)CC(=O)O[C@H](C(C)C)C(=O)N1C`, the IC50 with Hs-578T [1] worked out at 16.7 µM.
Take `CC[C@H](C)[C@H]1C(=O)O[C@H](C(C)C)C(=O)N(C)[C@@H]([C@@H](C)CC)C(=O)O[C@H](C(C)C)C(=O)N(C)[C@@H]([C@@H](C)CC)C(=O)O[C@H](Cc2ccc3ccccc3c2)C(=O)N1C`: in the assay with Hs-578T [1], the IC50 came to 8 µM.
For the molecule `CC[C@H](C)[C@H]1C(=O)O[C@H](C(C)C)C(=O)N(C)[C@@H]([C@@H](C)CC)C(=O)O[C@H](C(C)C)C(=O)N(C)[C@@H]([C@@H](C)CC)C(=O)O[C@H](C(C)C)C(=O)N1C`, the inhibition result (in the assay with 4T1 [6]; with 4T1 [8]; in the assay with E0771 [11]; with E0771 [13]; in the assay on E0771 [14]; in assay [4]) was “Active” throughout. For the same molecule, the inhibition result with E0771 [7], with EO771 [12] and in the assay on EO771 [15] was “inactive” throughout. Besides, the outcome with EO771 [9], in the assay on 4T1 [10], in the assay on Hs-578T [2] and in the assay with Hs-578T [3] was inactive. In addition, in the assay with Hs-578T [1], the IC50 was determined as 7.39 µM. The outcome with EO771 [16] was Active.
For `CC[C@H](C)[C@H]1C(=O)O[C@H](C(C)C)C(=O)N(C)[C@@H]([C@@H](C)CC)C(=O)O[C@H](C(C)C)C(=O)N(C)[C@@H]([C@@H](C)CC)C(=O)O[C@H](CCc2ccccc2)C(=O)N1C`, the IC50 with Hs-578T [1] is 8.1 µM.
As for `CC[C@H](C)[C@H]1C(=O)O[C@H](C(C)C)C(=O)N(C)[C@@H]([C@@H](C)CC)C(=O)O[C@H](C(C)C)C(=O)N(C)[C@@H]([C@@H](C)CC)C(=O)O[C@H](Cc2ccc(C)cc2)C(=O)N1C`, the concentration for half-maximal inhibition (IC50) with Hs-578T [1] came out at 8.34 µM.
Take `CC[C@H](C)[C@H]1C(=O)O[C@H](C(C)C)C(=O)N(C)[C@@H]([C@@H](C)CC)C(=O)O[C@H](C(C)C)C(=O)N(C)[C@@H]([C@@H](C)CC)C(=O)O[C@H](C)C(=O)N1C`: in the assay on Hs-578T [1], the IC50 came out at 13 µM.
